The series deals with E. coli DH1 ΔacrAB. Conditions: for biofuel level that inhibited growth: added to pooled culture in M9 minimal medium, aimed at an inhibitory concentration that reduced growth by 25%; for outcome of efflux pump in competition: 2% geranyl acetate, serial dilution competition. The method, then: In order to screen the efflux pump library against a variety of biofuels we devised a competition-based strategy to select for pumps that improved biofuel tolerance (FIG. 1A). Cells containing plasmids with individual pumps were grown separately and then pooled so that all individual strains were represented equally. This pooled culture was then grown both with and without biofuel, and maintained through serial dilutions every 10-14 hours over a total of 96 hours. At each dilution time point, plasmids from each culture were isolated and a custom microarray was used to quantify the amount of each efflux pump plasmid present in the culture (Methods).
Pooled culture glycerol stocks were used to inoculate M9 minimal medium with 30 μg/ml kanamycin and 10 μM IPTG. The culture was then divided into tubes to a final volume of 5 ml and biofuel was added directly to the tubes. All conditions were prepared in triplicate. Cultures were grown at 37° C. with orbital shaking at 200 rpm for all experiments.
Every 10-14 hours the cultures were diluted 1:100 into 5 ml of fresh M9 minimal medium with kanamycin, IPTG, and biofuel (where applicable). For the time-course assay, cultures were spun down at the completion of a growth cycle and plasmids were isolated. For end point competition assays, plasmid was isolated from the culture after 72 hours of serial dilution.
Custom microarrays (NimbleGen, Roche, USA) were used to measure the relative quantities of the efflux pumps present in the plasmid DNA isolated from the competition cultures. Arrays were designed so that they contained probes for all HAE1 annotated efflux pumps from all sequenced bacterial genomes. 12×135K arrays were used to allow for 12 experiments per slide.
Plasmid DNA was labeled and hybridized following the protocol for NimbleGen Comparative Genomic Hybridization Microarrays with minor modifications (Supporting Methods). Data were normalized using the standard settings for RMA analysis in the NimbleScan software. Probe values were averaged using a custom Matlab script (Mathworks, Inc.). […] For the positive hybridization control, all library plasmids were prepared individually and combined in vitro in equal proportions. For the negative hybridization control, a plasmid with the same vector backbone as those in the library, but no efflux pump, was isolated from DH1 ΔacrAB. Both hybridization controls were labeled and hybridized to the array using the methods described above.
This required the use of a co-solvent in order to accurately pipette small volumes. In both cases dimethylformamide (DMF) was used as the co-solvent. […] Other biofuels were added directly without the use of a co-solvent.

Entries after “also recorded” stand apart in the source; their conditions may differ.

Turning to `CN(C)C=O` [DMF, dimethylformamide], the “toxicity limit to E. coli” value (co-solvent amount present in the culture) is given as > 0.2%.

With `CCCCCC(=O)OCC=C(C)CCC=C(C)CCC=C(C)C` [farnesyl hexanoate], the “biofuel level that inhibited growth” value is 2.5 % v/v.

Take `C=C(C)[C@H]1CC=C(C)CC1` [limonene]: the “biofuel level that inhibited growth” value turned out to be 0.025 % v/v.

In the case of `CC1=CCC2CC1C2(C)C` (stereo not drawn) [α-pinene], the “biofuel level that inhibited growth” value is 2 % v/v.

B1: YP_692684: Alcanivorax borkumensis SK2 efflux pump, accession of inner membrane protein, SEQ ID NO:2 (protein, listed as Alcanivorax borkumensis)
chain: MARFFIDRPIFAWVIAIIMMMAGALAIYTLPIEQYPTVAPPQVSIAGNYPGASAKTVEDSVTQVIEQQMNGIDNLLYMSSSSDSFGNAAVNLTFAPGTDPDIAQVQVQNKLQLATPLLPQEVQQQGMQVTKSSDSFLMVAGFTSEDGSLSRADLADYVASNVQDPVSRVPGVGQIQLFGSPYAMRVWLDPNKLNKFDLTPQDVTQTIEVQNNQVASGQLGGAPAVEGQQLNATIIAQTRLEDVDQFENILLKVNPDGSRVFLKDVARVELAAQNYDVQGRYNGQPAAGLAISLATGANALDTAEALRARLAELQPYFPDKMEMVFPYDTTPFVSISIEEVVHTLFEAIILVFLVMYLFLQNFRATLIPTLAVPVVLLGTFAVLAAFGFSINTLTMFGMVLAIGLLVDDAIVVVENVERVMHEEGLPPKEATRKSMGQITGALVGIALVLSAVFVPMAFFPGSTGAIYRQFSITIVSAMVLSVLVALILTPALCATMLKAKDSEHQTDHGFFGWFNRTFDKSSRRYQGSVEKILGRRGRYLFIYVVIVGVLGFSFMRLPSSFLPEEDQGILFTLVTLPAGSTQEQTVKVLEKMEDYYLNEEASAVDGLFTVAGFSFTGRGQNAGMAFVNLKDWSERDLSVDGADNVVARAMGYFSTIREAMMFALNPPSIPELGNASGFDFQLLDQSGQGHEALIQARNQMLGMAAQDPRLAGVRPNGLEDSPQYQIDIDQQKAKALGLSISDINSTLQIAWGSSYVNNFVDRGRVKRVYVQADAPYRMLPENVNDWFVRNNQGKMVPFSTFATGHWTYGSPKLERYNGVSSVNIQGNAAPGYSTGDAMDAMEELSAKLPAGFGFEWTGMSYQERQSGDQAPALYVISLLVVFLCLAALYESWSIPFAVMLVVPLGILGAVLAATFRDLNNDVFFQVGLLTTIGLSAKNAILIAEFALELEQKGEHLLKATLEAVRMRLRPILMTSLAFMLGVTPLMISTGAGAGARNAIGTGVFGGMLTATVLAIFFIPLFYVAVRKLSGVPLDGKKKGKE
Consider B1, for which the “outcome of efflux pump in competition” value was “increase survival; also recorded: best pump”.

B2: NP_745594: Pseudomonas putida KT2440 efflux pump, accession of inner membrane protein, SEQ ID NO:3 (protein, listed as Pseudomonas putida)
chain: MPQFFIDRPVFAWVVALFILLAGALAIPQLPVAQYPNVAPPQVEIYAVYPGASAATMDESVVSLIEQELNGADNLLYFESQSSLGSATITATFAPGTHPDLAQVDVQNRLKVVESRLPRPVTQQGLQVEKVSTGFLLLATLTSEDGKLDETALSDILARNVMDEIRRLKGVGKAQLYGSERAMRIWIDPRKLIGFNLTPNDVAEAIAAQNAQVAPGSIGDLPSRSTQEITANVVVKGQLSSPDEFAAIVLRANPDGSTVTIGDVARVEIGAQEYQYGTRLNGKPATAFSVQLSPGANAMETATLVRAKMQDLARYFPEGVKYDIPYDTSPFVKVSIEQVINTLFEAMLLVFAVMFLFLQNLRYTLIPTLVVPVALMGTFAVMLAMGFSVNVLTLFGMVLAIGILVDDAIVVVENVERIMAEEGLPPKQATRKAMGQISGAIVGITLVLVAVFLPMAFMQGSVGVIYQQFSLSMAVSILFSAFLALSLTPALCATLLKPVAKGEHHERKGFFGWFNRRFESMSNGYQRWVVQALKRSGRYLLVYAVLLAVLGYGFSQLPTAFLPTEDQGYTITDIQLPPGASRMRTEQVAAQIEAHNAEEPGVGNTTLILGFSFSGSGQNAALAFTTLKDWSERGADDSAQSIADRATMAFTQLKDAIAYSVLPPPIDGLGESTGFEFRLQDRGGMGHAELMAARDQLLESASKSKVLTNVREASLAESPQVQLEIDRRQANALGVSFADIGTVLDVAVGSSYVNDFPNQGRMQRVVVQAEGDQRSQVEDLLNIHVRNDSGKMVPLGAFVQARWVSGPVQLTRYNGYPAVSISGEPAAGYSSGEAMAEVERLVAQLPAGTGLEWTGLSLQERLSGSQAPLLMALSLLVVFLCLAALYESWSIPTAVLLVVPLGVLGAVLAVTLRGMPNDVFFKVGLITLIGLSAKNAILIIEFAKHLVDQGVDAADAAVQAARLRLRPIVMTSLAFILGVVPLAIASGASSASQQAIGTGVIGGMLSATLAVVFVPVFFVVVMRLSGRRQAHDSDGQPVPRES
Turning to B2, the “outcome of efflux pump in competition” value is given as “survived the competition”.

B3: YP_957870: Marinobacter aqueolei efflux pump, accession of inner membrane protein, SEQ ID NO:1 (protein, listed as Marinobacter aqueolei)
chain: MINFFISRPVFSWVLAIVAMLAGIMAIFVLPVQRYPSVAPPAVEIQADYPGASADTVSNTVVQVIEQEMTGLDNLLYMGSTADSSGHATVTLTFAAGTDPDIAQVQVQNKLKLAEPRLPEVVRQQGISVEKSSTSFLMVMAFVSTDGRLSKLDIADFISSELAEPIGRVTGIGSVQVFGSEYAMRIWLDPSALTNYGLTVADVSAAIEAQNAQVTAGQLGGLPAVEGQQLNATVTAQTLLTSTEEFRNILLKSMPDGSRVRLGDVARVELGGGAVQIDTFYDGEPAAGLGINLAPGANSLAVTEAVKARLQELEPYFPEGVEIRYPYQTAPFVEASIDAVVTTIIEAIALVVLVMLVFLQSWRATLIPAIAIPVVLLGTFAIMAAFGFSINMLTLFGLVLAIGLLVDDAIVVVENVERVMHEDGLSPMEATRKSMGQIASALIGIGVVLSAVFIPMAFFPGSTGAIYRQFSLSIAGAMVLSVLVALILSPMLCGRILKPTHERTLLQKLFGWFEAGLGRLTRGYVRLVGHTARHAWLYTLAFLGIVGLVAVLFVRLPGGFLPAEDQGFAVVQYQLPAGATQQRTIDTIQVIEDYFMDQDEVQGLFTIAGFSFAGRAQNAGLAFVNLKPWSERDPETQSADAIIQRANRALAGLVRDGRAFAFNLPPIPELGQALGFELRLQDRGAIGHEALMAAQGQLLQLAAESPVLTSVRPNGLADNPRYKVDIDYEKAQALGIEPSEISRLLSVTWGSQYVNDFLHEGRVKRVYVQGDAPFRMLPEDFEAWYLRAANGEMTPLSEVTNGRWEYGSPRLERFNGVPSRQIQGEPAPGYSTGEAMAEVERLIAQLPDGVAGAWSGLSYQERQAGAQASLLYALSALVVFLALAALYESWTIPISVMLAVPLGVLGAVLAAMVRGLPNDVFFQVGILTTVGVTARNAILLVEFARSLEDQGMKLIEATKEAARVRLRPILMTSVAFGMGVLPLAFASGAGATTRIAIGTAVLGGMISATILATFFIPLFYVVVRRITDFLSGSRDQDDSAAAAPGRANGGVADDR
Turning to B3, the “outcome of efflux pump in competition” value is “increase survival”.

B4: NP_250708: Pseudomonas aeruginosa PA01 efflux pump, accession of inner membrane protein, SEQ ID NO:4 (protein, listed as Pseudomonas aeruginosa)
chain: MARFFIDRPVFAWVISLLIVLAGVLAIRFLPVAQYPDIAPPVVNVSASYPGASAKVVEEAVTAIIEREMNGAPGLLYTKATSSTGQASLTLTFRQGVNADLAAVEVQNRLKIVESRLPESVRRDGIYVEKAADSIQLIVTLTSSSGRYDAMELGEIASSNVLQALRRVEGVGKVETWGAEYAMRIWPDPAKLTSMNLSASDLVNAVRRHNARLTVGDIGNLGVPDSAPISATVKVDDTLVTPEQFGEIPLRIRADGGAIRLRDVARVEFGQSEYGFVSRVNQMTATGLAVKMAPGSNAVATAKRIRATLDELSRYFPEGVSYNIPYDTSAFVEISIRKVVSTLLEAMLLVFAVMYLFMQNFRATLIPTLVVPVALLGTFTVMLGLGFSINVLTMFGMVLAIGILVDDAIIVVENVERLMAEEGLSPHDATVKAMRQISGAIVGITVVLVSVFVPMAFFSGAVGNIYRQFAVTLAVSIGFSAFLALSLTPALCATLLRPIDADHHEKRGFFGWFNRAFLRLTGRYRNAVAGILARPIRWMLVYTLVIGVVALLFVRLPQAFLPEEDQGDFMIMVMQPEGTPMAETMANVGDVERYLAEHEPVAYAYAVGGFSLYGDGTSSAMIFATLKDWSERREASQHVGAIVERINQRFAGLPNRTVYAMNSPPLPDLGSTSGFDFRLQDRGGVGYEALVKARDQLLARAAEDPRLANVMFAGQGEAPQIRLDIDRRKAETLGVSMDEINTTLAVMFGSDYIGDFMHGSQVRKVVVQADGAKRLGIDDIGRLHVRNEQGEMVPLATFAKAAWTLGPPQLTRYNGYPSFNLEGQAAPGYSSGEAMQAMEQLMQGLPEGIAHEWSGQSFEERLSGAQAPALFALSVLIVFLALAALYESWSIPLAVILVVPLGVLGALLGVSLRGLPNDIYFKVGLITIIGLSAKNAILIIEVAKDHYQEGMSLLQATLEAARLRLRPIVMTSLAFGFGVVPLALSSGAGSGAQVAIGTGVLGGIVTATVLAVFLVPLFFLVVGRLFRLRKAPRTGNSPQIPTEQA
For the molecule B4, the “outcome of efflux pump in competition” value is on record as “survived the competition”.

These data come from patent US9428726B2, “Modified host cells with efflux pumps” (priority 2010, dated 2016).
